Assay results as given in US20100316585A1, “Use of Magnesium Stearate Dihydrate for Lubrication of Solid Industrial or Consumer Products” (priority 2008, published 2010).

Key:
[1] = Particle-size distribution by laser diffraction; type: physicochemical; conditions: neat MgSt hydrate
Description: Particle-size distributions were determined using a laser diffraction system (series 2600, Malvern Instruments Ltd., Malvern, UK) equipped with a 63-mm lens (size range of 1.2-118 μm) and a stirred cell.

[2] = Percent water (free and bound) of neat MgSt hydrates; type: physicochemical; conditions: neat MgSt hydrate
Description: Thermal gravimetric analysis (Q50 TGA, TA Instruments) was carried out from 25 to 190° C. at a heating rate of 5° C./min. Data acquisition and analysis were conducted using TA Instruments software. FIG. 4 presents the TGA of MgSt-M and MgSt-D.

Substance: magnesium stearate dihydrate [MgSt-D]
- Particle size (nominal mean particle size) [1]: 14.3 μm
- Dihydrate water [2]: 5.6%
- Monohydrate water [2]: 0%
- percent bound moisture [2]: 5.6%
- Free water ([2]; dihydrate): little or no free water
- Free water ([2]; listed as MqSt-D, dihydrate): 0%

Substance: magnesium stearate [MgSt-M, reference compound]
- Particle size (nominal mean particle size) [1]: 10.6 μm
- Dihydrate water [2]: 0%
- Free water [2]: 0.6%
- Monohydrate water [2]: 2.8%
- percent bound moisture [2]: 2.8%
